Experimental data published in paper PMC11062899, “De novo development of small cyclic peptides that are orally bioavailable” (Nature Chemical Biology, 2023).
Where “and” joins values, the source holds several entries; their conditions need not be identical. Equal values may be shown once.

Assays:
human α-thrombin = human α-thrombin (Homo sapiens, UniProt P00734); assay: Protease inhibition, Ki for human α-thrombin (fluorogenic substrate Z-Gly-Gly-Arg-AMC); format: biochemical; conditions: replicates R1-R3
In short: (§1)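 Inhibition was measured as AMC fluorescence from 50 μM substrate, monitored for 30 min at 25 °C, relative to a peptide-free control. Human and rat enzymes were present at 2 nM and 3 nM final, respectively, in 50 mM Tris-HCl pH 7.4, 150 mM NaCl, 10 mM MgCl2, 1 mM CaCl2. Ki derives from fitted IC50 via Cheng–Prusoff.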

porcine pancreatin = assay: Peptide stability in simulated intestinal fluid (SIF); format: in vitro ADME; conditions: after 8 h vs 0 h (TIC); for SIF stability, Residual peptide Average: average of R1-R3; for SIF stability, Residual peptide: single replicates R1-R3
In short: (§2)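 Peptide from a 1 mM DMSO stock was added to fluid pre-warmed at 37 °C. SGF was pH 1.2 NaCl with porcine pepsin (0.32 g per 100 ml), and SIF was pH 6.8 potassium phosphate with porcine pancreatin (1 g per 100 ml). Supernatant peptide was quantified by LC–MS, with residual expressed as T1/T0.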

[1] = as above; format: in vitro ADME, porcine; conditions: simulated gi fluid; 8 h, 37 °C, pH 6.8; read-out: Proteolytic stability: SIF (8 h) % remaining
In short: as §2

[2] = Passive artificial membrane permeability (PAMPA); conditions: for PAMPA permeability: % permeability: 50 μM, 12–18 h, acceptor concentration relative to equilibrium; for Papp at 50 μM / Permeability% Average / Permeability% R1 / Permeability% R3: PAMPA; for Papp at 50 μM: pH 7.4; for Permeability% Average: average of R1-R3; for Permeability% R1: replicate R1; for Permeability% R1 / Permeability% R3: TIC of top well sample relative to sample at theoretical equilibrium; for Permeability% R3: replicate R3
Experimental: The plate system consisted of a 96-well microwell plate (donor wells) and a 96-well insert containing a PVDF membrane coated with tri-layers of phospholipids (acceptor wells). Permeability was measured from the bottom plate (donor wells) to the top insert (acceptor wells). Cyclic peptide or reference compound solutions were prepared at a concentration of 50 μM in PBS buffer (pH 7.4) containing 5% DMSO, and 300 μl of the resulting solutions was placed into the donor wells of the PAMPA plate. Acceptor wells were prepared by adding 200 μl of PBS buffer (pH 7.4) containing 5% DMSO. The insert was stacked onto the donor plate, and the system was covered with a lid to avoid evaporation. […] Additionally, 3:2 dilutions of the 50 μM cyclic peptide stocks were prepared in PBS buffer (pH 7.4) containing 5% DMSO to yield a sample corresponding to the theoretical equilibrium between donor and acceptor wells. The samples were run on the LC–MS to measure the cyclic peptide concentration representing maximum permeability. Permeability percent was calculated using equation (4) below.4 Permeability%=PeptideAcceptor/PeptideEquilibrated×100 where [PeptideAcceptor] represents the AUC measured on the LC–MS for the acceptor wells, and [PeptideEquilibrated] represents the AUC measured for the samples diluted to the theoretical equilibrium. Detection limit for the assay was typically at 1% permeability.
Papp values were calculated using equation (5).5 Papp=VD×VA/VD+VA×A×t×−ln1−PeptideAcceptor/PeptideEquilibrated where VD and VA are the volumes of donor and acceptor wells, respectively; A is the area of the membrane; and t is the incubation time.

[3] = Metabolic stability in rat liver microsomes (RLMs); conditions: rat, microsomes
Experimental: Metabolic stability was measured by incubating the peptides (10 μM) with RLMs. Peptides to test were dissolved in DMSO (4 mM), and 1 μl of the resulting solution was added to 365 μl of 0.1 M sodium phosphate buffer (pH 7.4). The solution was pre-warmed at 37 °C for 5 min before starting the reaction by addition of 24 μl of NADPH cofactor solution (22 mM) and 11 μl of RLMs (20 mg ml^−1 protein concentration; Thermo Fisher Scientific, RTMCPL). […] Samples were vortexed, sonicated for 5 min and centrifuged at 16,000g for 10 min. Supernatant was analyzed by LC–MS to quantify the disappearance of the compound and formation of degradation products.

porcine pepsin = target: T1, porcine pepsin (Sus scrofa, UniProt P00791); assay: Peptide stability in simulated gastric fluid (SGF); format: in vitro ADME; conditions: for SGF stability, Residual peptide Average / SGF stability, Residual peptide: after 8 h vs 0 h (TIC); for SGF stability, Residual peptide Average: average of R1-R3; for SGF stability, Residual peptide: single replicates R1-R3; for remaining at 8 h: simulated gi fluid, 37 °C, pH 1.2, read-out: Proteolytic stability: SGF (8 h) % remaining
T1 construct: 0.32 g of porcine pepsin (Sigma-Aldrich, P7125) was dissolved under gentle agitation; purchased Sigma-Aldrich P7125
In short: as §2

rat α-thrombin = target: T2, rat α-thrombin (Rattus norvegicus, UniProt P18292); assay: Protease inhibition, Ki for rat α-thrombin (fluorogenic substrate Z-Gly-Gly-Arg-AMC); format: biochemical; conditions: replicates R1-R3
T2 construct: rat α-thrombin (Molecular Innovations) were used at final concentrations of 2 nM and 3 nM; purchased Molecular Innovations
In short: as §1

[4] = peptide 1.33E+02 uM, slope of proteolytic substrate cleavage over time
[5] = CL (ul/min/mg protein) R1, RLM CL, replicate R1
[6] = CL (ul/min/mg protein) R2, RLM CL, replicate R2
[7] = CL (ul/min/mg protein) R3, RLM CL, replicate R3
[8] = Half Life (min) R1, RLM metabolic stability, replicate R1, 0-60 min
[9] = Half Life (min) R2, RLM metabolic stability, replicate R2, 0-60 min
[10] = Half Life (min) R3, RLM metabolic stability, replicate R3, 0-60 min
[11] = Metabolic stability: Half life T1/2 (min), RLMs, mean and SD, three measurements
[12] = Metabolic stability: RLM CL (ul/min/mg), RLMs, mean and SD, three measurements

T1 sequence (P00791 60-385): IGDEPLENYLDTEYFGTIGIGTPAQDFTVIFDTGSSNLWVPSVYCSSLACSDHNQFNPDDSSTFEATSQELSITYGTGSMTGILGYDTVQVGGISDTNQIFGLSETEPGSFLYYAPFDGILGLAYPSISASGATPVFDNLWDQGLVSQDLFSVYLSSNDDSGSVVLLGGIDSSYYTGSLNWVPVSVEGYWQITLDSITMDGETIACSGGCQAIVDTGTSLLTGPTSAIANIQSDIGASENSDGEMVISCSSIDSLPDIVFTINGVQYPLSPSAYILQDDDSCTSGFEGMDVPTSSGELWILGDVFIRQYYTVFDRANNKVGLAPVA

Compound: O=C1NCCSCc2cccc(n2)CSC[C@H](NC(=O)c2ccc(Cl)s2)C(=O)N[C@@H](CO)C(=O)NCc2cccc1c2 [compound 27]
- Human alpha thrombin inhibition, slope normalized to DMSO (human α-thrombin; peptide 1.02E-03 uM): 98.3 and 96.5 and 99.8
- Human alpha thrombin inhibition, slope normalized to DMSO (human α-thrombin; peptide 1.04E+00 uM): 84.1 and 76.8 and 79.3
- Human alpha thrombin inhibition, slope normalized to DMSO (human α-thrombin; peptide 1.27E-04 uM): 100.0 and 98.1 and 101.1
- Human alpha thrombin inhibition, slope normalized to DMSO (human α-thrombin; peptide 1.30E-01 uM): 95.4 and 96.3 and 96.1
- Human alpha thrombin inhibition, slope normalized to DMSO (human α-thrombin; [4]): 7.7 and 17.1 and 13.6
- Human alpha thrombin inhibition, slope normalized to DMSO (human α-thrombin; peptide 1.63E-02 uM): 97.0 and 96.5 and 98.2
- Human alpha thrombin inhibition, slope normalized to DMSO (human α-thrombin; peptide 1.67E+01 uM): 27.2 and 28.7 and 30.2
- Human alpha thrombin inhibition, slope normalized to DMSO (human α-thrombin; peptide 2.03E-03 uM): 100.7 and 96.1 and 100.3
- Human alpha thrombin inhibition, slope normalized to DMSO (human α-thrombin; peptide 2.08E+00 uM): 72.7 and 80.3 and 72.0
- Human alpha thrombin inhibition, slope normalized to DMSO (human α-thrombin; peptide 2.54E-04 uM): 101.2 and 95.7 and 100.6
- Human alpha thrombin inhibition, slope normalized to DMSO (human α-thrombin; peptide 2.60E-01 uM): 93.2 and 89.7 and 91.7
- Human alpha thrombin inhibition, slope normalized to DMSO (human α-thrombin; peptide 3.18E-05 uM): 102.0 and 95.9 and 100.7
- Human alpha thrombin inhibition, slope normalized to DMSO (human α-thrombin; peptide 3.26E-02 uM): 97.3 and 93.9 and 91.1
- Human alpha thrombin inhibition, slope normalized to DMSO (human α-thrombin; peptide 3.33E+01 uM): 17.1 and 15.9 (2×)
- Human alpha thrombin inhibition, slope normalized to DMSO (human α-thrombin; peptide 4.07E-03 uM): 99.1 and 96.8 and 105.4
- Human alpha thrombin inhibition, slope normalized to DMSO (human α-thrombin; peptide 4.17E+00 uM): 57.2 and 53.3 and 58.0
- Human alpha thrombin inhibition, slope normalized to DMSO (human α-thrombin; peptide 5.09E-04 uM): 99.5 and 108.3 and 102.0
- Human alpha thrombin inhibition, slope normalized to DMSO (human α-thrombin; peptide 5.21E-01 uM): 89.3 and 86.3 and 89.6
- Human alpha thrombin inhibition, slope normalized to DMSO (human α-thrombin; peptide 6.36E-05 uM): 101.1 and 95.4 and 95.5
- Human alpha thrombin inhibition, slope normalized to DMSO (human α-thrombin; peptide 6.51E-02 uM): 97.1 and 92.8 and 96.9
- Human alpha thrombin inhibition, slope normalized to DMSO (human α-thrombin; peptide 6.67E+01 uM): 14.5 and 13.5 and 16.4
- Human alpha thrombin inhibition, slope normalized to DMSO (human α-thrombin; peptide 8.14E-03 uM): 99.5 and 100.5 and 98.6
- Human alpha thrombin inhibition, slope normalized to DMSO (human α-thrombin; peptide 8.33E+00 uM): 48.2 and 47.8 and 48.5
- SIF stability, Residual peptide Average (porcine pancreatin): 91.64
- SIF stability, Residual peptide (porcine pancreatin): 89.51 and 84.30 and 101.11
- remaining at 8 h [1]: 92 ± 9%
- PAMPA permeability: % permeability [2]: 2.5 ± 1.2%
- Papp at 50 μM [2]: 0.151 ×10⁻⁶ cm/s
- Permeability% Average [2]: 2.5%
- Permeability% R1 [2]: 3.72%
- Permeability% R3 [2]: 2.35%
- microsomal CLint [3, 5]: 48.3 µL/min/mg
- microsomal CLint [3, 6]: 57.4 µL/min/mg
- microsomal CLint [3, 7]: 60.2 µL/min/mg
- half-life [3, 8]: 28.7 min
- half-life [3, 9]: 24.2 min
- half-life [3, 10]: 23 min
- half-life [3, 11]: 25 ± 2 min
- microsomal CLint [3, 12]: 55 ± 5 µL/min/mg
- SGF stability, Residual peptide Average (porcine pepsin): 98.89
- SGF stability, Residual peptide (porcine pepsin): 99.89 and 99.67 and 97.09
- remaining at 8 h (porcine pepsin): 99 ± 2%
- Rat alpha thrombin inhibition, slope normalized to DMSO (rat α-thrombin; [4]): 3.9 and 4.8 and 10.9
- Rat alpha thrombin inhibition, slope normalized to DMSO (rat α-thrombin; peptide 1.67E+01 uM): 9.1 and 8.9 and 16.0
- Rat alpha thrombin inhibition, slope normalized to DMSO (rat α-thrombin; peptide 2.08E+00 uM): 42.2 and 39.9 and 27.8
- Rat alpha thrombin inhibition, slope normalized to DMSO (rat α-thrombin; peptide 3.33E+01 uM): 5.4 and 4.9 and 14.0
- Rat alpha thrombin inhibition, slope normalized to DMSO (rat α-thrombin; peptide 4.17E+00 uM): 24.5 and 25.5 and 24.4
- Rat alpha thrombin inhibition, slope normalized to DMSO (rat α-thrombin; peptide 6.67E+01 uM): 4.0 and 4.6 and 11.6
- Rat alpha thrombin inhibition, slope normalized to DMSO (rat α-thrombin; peptide 8.33E+00 uM): 18.9 and 18.5 and 19.5

Compound: O=C(N[C@H]1CSCc2cccc(n2)CSCCNC(=O)[C@H](Cc2ccccn2)NC(=O)C2(CCCC2)NC1=O)c1ccc(Cl)s1 [compound 28]
- Human alpha thrombin inhibition, slope normalized to DMSO (human α-thrombin; peptide 1.02E-03 uM): 100.6 and 102.2 and 99.4
- Human alpha thrombin inhibition, slope normalized to DMSO (human α-thrombin; peptide 1.04E+00 uM): 91.1 and 87.4 and 92.0
- Human alpha thrombin inhibition, slope normalized to DMSO (human α-thrombin; peptide 1.27E-04 uM): 100.4 and 99.0 and 100.8
- Human alpha thrombin inhibition, slope normalized to DMSO (human α-thrombin; peptide 1.30E-01 uM): 103.2 and 98.5 and 101.7
- Human alpha thrombin inhibition, slope normalized to DMSO (human α-thrombin; [4]): 16.8 and 18.7 and 23.0
- Human alpha thrombin inhibition, slope normalized to DMSO (human α-thrombin; peptide 1.63E-02 uM): 79.4 and 98.4 and 92.1
- Human alpha thrombin inhibition, slope normalized to DMSO (human α-thrombin; peptide 1.67E+01 uM): 53.5 and 53.3 and 56.4
- Human alpha thrombin inhibition, slope normalized to DMSO (human α-thrombin; peptide 2.03E-03 uM): 77.9 and 96.7 and 93.1
- Human alpha thrombin inhibition, slope normalized to DMSO (human α-thrombin; peptide 2.08E+00 uM): 88.5 and 72.9 and 90.5
- Human alpha thrombin inhibition, slope normalized to DMSO (human α-thrombin; peptide 2.54E-04 uM): 100.6 and 92.1 and 94.0
- Human alpha thrombin inhibition, slope normalized to DMSO (human α-thrombin; peptide 2.60E-01 uM): 98.5 and 95.3 and 96.4
- Human alpha thrombin inhibition, slope normalized to DMSO (human α-thrombin; peptide 3.18E-05 uM): 102.4 and 100.9 (2×)
- Human alpha thrombin inhibition, slope normalized to DMSO (human α-thrombin; peptide 3.26E-02 uM): 99.5 and 98.1 and 103.6
- Human alpha thrombin inhibition, slope normalized to DMSO (human α-thrombin; peptide 3.33E+01 uM): 35.9 and 38.0 and 41.6
- Human alpha thrombin inhibition, slope normalized to DMSO (human α-thrombin; peptide 4.07E-03 uM): 103.3 and 98.8 and 95.5
- Human alpha thrombin inhibition, slope normalized to DMSO (human α-thrombin; peptide 4.17E+00 uM): 79.3 and 79.5 and 79.0
- Human alpha thrombin inhibition, slope normalized to DMSO (human α-thrombin; peptide 5.09E-04 uM): 102.1 and 100.7 and 91.1
- Human alpha thrombin inhibition, slope normalized to DMSO (human α-thrombin; peptide 5.21E-01 uM): 99.8 and 93.6 and 95.9
- Human alpha thrombin inhibition, slope normalized to DMSO (human α-thrombin; peptide 6.36E-05 uM): 102.4 and 110.3 and 102.0
- Human alpha thrombin inhibition, slope normalized to DMSO (human α-thrombin; peptide 6.51E-02 uM): 102.8 and 95.7 and 101.3
- Human alpha thrombin inhibition, slope normalized to DMSO (human α-thrombin; peptide 6.67E+01 uM): 23.2 and 24.0 and 29.0
- Human alpha thrombin inhibition, slope normalized to DMSO (human α-thrombin; peptide 8.14E-03 uM): 99.1 and 108.8 and 87.5
- Human alpha thrombin inhibition, slope normalized to DMSO (human α-thrombin; peptide 8.33E+00 uM): 72.2 and 85.5 and 69.3
- SIF stability, Residual peptide Average (porcine pancreatin): 94.01
- SIF stability, Residual peptide (porcine pancreatin): 86.19 and 87.95 and 107.89
- remaining at 8 h [1]: 94 ± 12%
- PAMPA permeability: % permeability [2]: 30 ± 7%
- Papp at 50 μM [2]: 2.29 ×10⁻⁶ cm/s
- Permeability% Average [2]: 29.5%
- Permeability% R1 [2]: 35.05%
- Permeability% R3 [2]: 31.19%
- microsomal CLint [3, 5]: 81.1 µL/min/mg
- microsomal CLint [3, 6]: 96.1 µL/min/mg
- microsomal CLint [3, 7]: 78 µL/min/mg
- half-life [3, 8]: 17.1 min
- half-life [3, 9]: 14.4 min
- half-life [3, 10]: 17.8 min
- half-life [3, 11]: 16.4 ± 1.4 min
- microsomal CLint [3, 12]: 85 ± 8 µL/min/mg
- SGF stability, Residual peptide Average (porcine pepsin): 95.21
- SGF stability, Residual peptide (porcine pepsin): 100.04 and 92.83 and 92.76
- remaining at 8 h (porcine pepsin): 95 ± 4%
- Rat alpha thrombin inhibition, slope normalized to DMSO (rat α-thrombin; [4]): 12.2 (2×) and 11.8
- Rat alpha thrombin inhibition, slope normalized to DMSO (rat α-thrombin; peptide 1.67E+01 uM): 38.3 and 37.3 and 38.4
- Rat alpha thrombin inhibition, slope normalized to DMSO (rat α-thrombin; peptide 2.08E+00 uM): 79.7 and 78.5 and 79.5
- Rat alpha thrombin inhibition, slope normalized to DMSO (rat α-thrombin; peptide 3.33E+01 uM): 24.3 and 23.3 and 23.8
- Rat alpha thrombin inhibition, slope normalized to DMSO (rat α-thrombin; peptide 4.17E+00 uM): 68.5 and 68.7 and 67.7
- Rat alpha thrombin inhibition, slope normalized to DMSO (rat α-thrombin; peptide 6.67E+01 uM): 14.7 and 14.3 and 13.4
- Rat alpha thrombin inhibition, slope normalized to DMSO (rat α-thrombin; peptide 8.33E+00 uM): 56.8 and 54.3 and 57.8
